From article PMC5869554 (CPT: Pharmacometrics & Systems Pharmacology, 2017)
Converted amounts (≈) assume the structure as drawn. Read-outs that look alike come from different tables or passages of the source.

Tests used:
[1] = Solubility in phosphate buffer at pH 7.4; assay type: physicochemical
[2] = LogD7.4, octanol/water partition coefficient; assay type: physicochemical; conditions: for LogD7.4: aqueous phase at pH7.4; for logD: pH 7.4
pKa determination = assay type: physicochemical
guinea pig trachea = conditions: cited from earlier work
[3] = ref 8, 9; cited from earlier work
[4] = test system: forced expiratory volume in 1 second (FEV1); assay: Clinical lung function; assay type: in vivo, human; conditions: once daily dosing; glycopyrronium 25 µg, indacaterol 300 µg, batefenterol 800 µg; COPD patients
human bronchi = conditions: cited from earlier work
[5] = phosphate buffer, pH 7.4, aqueous buffer
[6] = pKa, second printed value (dibase)

With `CC(C)c1ncc(C(=O)N2CCOC3(CCN(Cc4ccc(F)c(CCNC[C@H](O)c5ccc(O)c6[nH]c(=O)sc56)c4)CC3)C2)s1` [AZD2115] the solubility ([1]; phosphate buffer at pH 7.4) was 650 µM (≈ 435 µg/mL), the LogD7.4 [2] was 2.1 and the pKa (pKa determination) was 8.7. For the same molecule, the pKa (pKa determination; second printed value (dibase)) was 7.6.

With `CCN(CC)CCN(CCNCCc1ccc(O)c2[nH]c(=O)sc12)C(=O)CCOCCc1cccc2ccccc12` [AZD3199] the solubility ([1]; phosphate buffer at pH 7.4) was 2,510 µM, the LogD7.4 [2] was 2.3 and the pKa (pKa determination) was 9.5. The pKa (pKa determination; second printed value (dibase)) was 7.1, the “In vitro guinea pig trachea pIC50” value (guinea pig trachea; ref 19) was 8.019 and the lung half lives [3] was “in the order of days”.

For `CNC(=O)c1cc(Cl)c(OC(C)(C)C(=O)O)cc1OC[C@@H](O)CN1CCC2(CC1)Cc1cc(Cl)ccc1O2` [AZD4818], the solubility [1, 5] was greater than 2500 µM, the logD [2] was 0.9 and the pKa (pKa determination; pKa) was 8.4. For the same molecule, the pKa (pKa determination; [6]) was 6.2.

For `COc1cc(NC(=O)CCN2CCC(OC(=O)Nc3ccccc3-c3ccccc3)CC2)c(Cl)cc1CNC[C@H](O)c1ccc(O)c2[nH]c(=O)ccc12` [Batefenterol, (R)‐1‐(3‐((2‐chloro‐4‐(((2‐hydroxy‐2‐(8‐hydroxy‐2‐oxo‐1,2‐dihydroquinolin‐5‐yl)ethyl)amino)methyl)‐5‐methoxyphenyl)amino)‐3‐oxopropyl)piperidin‐4‐yl [1,1'‐biphenyl]‐2‐ylcarbamate], the solubility [1, 5] was 28 µM (≈ 20.7 µg/mL), the logD [2] was 3.1 and the pKa (pKa determination; pKa) was 10. The pKa (pKa determination; [6]) was 7.3, the “associated increase in FEV1, single to multiple dosing” value (shortened to “associated increase in FEV1, single”) [4] was “around 100 mL” and the “In vitro guinea pig trachea pIC50” value (guinea pig trachea; ref 26) was 8.026. The lung half lives [3] was “in the order of days”.

For `COc1ccc(CC(C)NCC(O)c2ccc(O)c(NC=O)c2)cc1` (stereo not shown) [Formoterol], the “In vitro guinea pig trachea pIC50” value (guinea pig trachea; ref 19) is given as 8.819 and the “In vitro human bronchi pIC50” value (human bronchi; ref 23) is given as 8.8.

In the case of `C[N+]1(C)CCC(OC(=O)C(O)(c2ccccc2)C2CCCC2)C1` (stereo not shown) [Glycopyrronium], the “associated increase in FEV1, single” value [4] is listed as “around 40 mL”, the “In vitro guinea pig trachea pIC50” value (guinea pig trachea; ref 25) is listed as 9.025 and the “In vitro human bronchi pIC50” value (human bronchi; ref 24) is listed as 8.4. For the same molecule, the “In vitro human bronchi pIC50” value (human bronchi; ref 25) was 10.4.

With `CCc1cc2c(cc1CC)CC(NC[C@H](O)c1ccc(O)c3[nH]c(=O)ccc13)C2` [Indacaterol] the solubility [1, 5] was 25 µM (≈ 9.81 µg/mL), the logD [2] was 2.8 and the pKa (pKa determination; pKa) was 8.3. The “associated increase in FEV1, single” value [4] was “around 40 mL”, the “In vitro guinea pig trachea pIC50” value (guinea pig trachea; ref 19) was 7.719 and the “In vitro human bronchi pIC50” value (human bronchi; ref 22) was 6.6. For the same molecule, the “In vitro human bronchi pIC50” value (human bronchi; ref 24) was 7.4.

For `CC(C)[N+]1(C)[C@@H]2CC[C@H]1C[C@@H](OC(=O)C(CO)c1ccccc1)C2` (stereo partly shown) [Ipratropium], the “In vitro guinea pig trachea pIC50” value (guinea pig trachea; ref 25) is given as 8.625 and the “In vitro human bronchi pIC50” value (human bronchi; ref 25) is given as 9.525.

For `CC(C)(C)NCC(O)c1ccc(O)c(CO)c1` (stereo not shown) [Salbutamol], the solubility [1, 5] is given as greater than 2900 µM, the pKa (pKa determination; pKa) is given as 9.2 and the “In vitro guinea pig trachea pIC50” value (guinea pig trachea; ref 19) is given as 6.719. For the same molecule, the “In vitro human bronchi pIC50” value (human bronchi; ref 21) was 6.4 and the “In vitro human bronchi pIC50” value (human bronchi; ref 22) was 6.9.

`OCc1cc(C(O)CNCCCCCCOCCCCc2ccccc2)ccc1O` (stereo not shown) [Salmeterol] showed a solubility [1, 5] greater than 380 µM, a logD [2] of 2.2 and a pKa (pKa determination; pKa) of 9.1. For the same molecule, the “In vitro human bronchi pIC50” value (human bronchi; ref 21) was 7.3 and the “In vitro human bronchi pIC50” value (human bronchi; ref 22) was 8.1.

Molecule `CC(C)(C)NCC(O)c1cc(O)cc(O)c1` (stereo not shown) [Terbutaline] has a solubility [1, 5] of 6830 µM (≈ 1540 µg/mL), a logD [2] of -1.5 and a pKa (pKa determination; pKa) of 9.3.

In the case of `C[N+]1(C)[C@@H]2C[C@@H](OC(=O)C(O)(c3cccs3)c3cccs3)C[C@H]1[C@@H]1O[C@@H]12` [Tiotropium], the solubility [1, 5] is listed as greater than 2800 µM, the “In vitro guinea pig trachea pIC50” value (guinea pig trachea; ref 25) is listed as 9.125 and the “In vitro human bronchi pIC50” value (human bronchi; ref 25) is listed as 9.525.
